Reference: patent US20010011143A1, “Process for preparing phenoxyphenylsulfonyl halides” (priority 1998, published 2001)

Q: For `O=S(=O)(Oc1ccc(F)cc1)c1ccc(Oc2ccc(F)cc2)cc1` [Example 1, 4-(4-Fluorophenoxy)benzenesulfonic Acid 4-Fluorophenyl Ester], which melting point is on record?
A: The melting point was 78 to 83 °C.
